Results on four compounds are retold here after patent US20250221991A1, “COMBINATION THERAPY FOR THE TREATMENT OF CANCER METASTASES” (University of Cincinnati, priority 2024, published 2025).

Several values for one entry are separate records, joined by “and”; a condition that tells them apart may be missing. Identical values can stand only once.

For test [1], the system named is MDA-MB-231 cells. Put plainly: Deadherent survival (WST-1, poly-HEMA vs plastic), MDA-MB-231. The format is cell-based. The following applies: for concentration range of significant growth inhibition on poly-HEMA: deadherent cells. The method, then: (§1) Cells were seeded at a density of 10^4 cells/well in 96-well plates, either uncoated or in poly(2-hydroxyethyl methacrylate) (poly-HEMA) coated wells (3 mg of poly-HEMA in 50 μL 95% ethanol, let dry overnight, then washed twice with PBS, followed by one wash with medium before initiation of the experiment). Drugs were added in triplicates at the indicated concentrations for an incubation time of 48 h. At the 48-h time point, the indicator WST-1 was added to each well at 10% v/v final concentration. At the 60-, 80-, and 120-minute time points, the absorbance was measured at 450 nm using a MRX-TC Revelation plate reader.
In general terms: Tetrazolium dyes change colour on reduction, which living cells bring about.

For test [2], the system named is MIA PaCa-2 cells. Put plainly: Soft agar colony formation, MIA PaCa-2. In kind it is cell-based, human. Here is the method: (§2) The capability of cells to grow under anchorage-independent conditions is a hallmark of transformation and correlates with tumor progression in vivo. The assay was performed in a 60-mm dish with a bottom layer of 2 mL 0.5% agar (Noble Agar, Sigma) in the culture medium that is designated to the cells. The bottom agar was allowed to be solidified in the biosafety cabinet. Cells were suspended in 0.2% agar for PANC-1 cells, MIA PaCa-2 cells, and B16-F10 cells, but in 0.15% agar for MDA-MB-231 cells and 4T1 cells and then plated (1×10^5 cells/2 mL/dish) on top of the bottom layer. 400 μL culture medium with or without the indicated doses of drug treatment was added to cover the top agar layer every other day over 2 weeks for PANC-1, MIA PaCa-2 cells and over 3 weeks for MDA-MB-231 cells, respectively. The colonies in five microscopic fields (top, bottom, left, right and center) of each dish were photographed. […] Each treatment was repeated thrice.

For test [3], the system named is PANC-1 cells. The test is described as follows: Deadherent survival (WST-1, poly-HEMA vs plastic), PANC-1. In kind it is cell-based, human. The method, then:
as §1

The test system of test [4] is MIA PaCa-2 cells. The test is described as follows: Deadherent survival (WST-1, poly-HEMA vs plastic), MIA PaCa-2. The format is cell-based, human. Here is the method: as §1
Test [5] relates to PANC-1 cells. Put plainly: Soft agar colony formation, PANC-1. In kind it is cell-based, human. Here is the method:
as §2

The test system of test [6] is MDA-MB-231 cells. Put plainly: Soft agar colony formation, MDA-MB-231. The format is cell-based. The method, then: as §2
[7] abbreviates: same concentration range that completely suppressed soft agar colony formation.

As for `C[S+](C)[O-]` [DMSO, dimethyl sulfoxide], the “effect on growth when plated on plastic or on poly-HEMA” value in the test on MDA-MB-231 cells [1] (setting [7]), in the test with PANC-1 cells [3] (setting [7]) and in the test with MIA PaCa-2 cells [4] (setting [7]) was “no effect” each time. The “soft agar colony frequency” value with MIA PaCa-2 cells [2] (0.125%-0.25% (v/v)) and in the test with PANC-1 cells [5] (0.125%-0.25% (v/v)) was “without impacting” throughout.
Regarding `[NH4+].[NH4+].[SH-].[SH-].[S]=[Mo]=[S]` [ammonium tetrathiomolybdate], the “inhibition of soft agar colony size” value worked out at 43% in the test with MDA-MB-231 cells [6] (0.5 μg/mL), 75% with MDA-MB-231 cells [6] (1 μg/mL), 93% in the test on MDA-MB-231 cells [6] (2 μg/mL) and 94% with MDA-MB-231 cells [6] (4 μg/mL).
Turning to `CCCCNc1cc(C(=O)O)cc(S(N)(=O)=O)c1Oc1ccccc1` [bumetanide], in the test on MDA-MB-231 cells [1] (48 h, WST-1), the “concentration suppressing both adherent and deadherent cells” value is recorded as “above 50 μg/mL”; the “concentration range of significant growth inhibition on poly-HEMA” value lay in the range of 15 to 35 µg/mL. The “effect on the same cells in the adherent (plated) state” value with MDA-MB-231 cells [1] (in the concentration range that significantly inhibits cells on poly-HEMA) was “without affecting”. Besides, the “concentration range suppressing proliferation on poly-HEMA” value in the test with MIA PaCa-2 cells [4] (deadherent cells) fell in the range of 1 to 5 µg/mL.
Consider `Cc1ccc(Nc2nccc(N(C)c3ccc4c(C)n(C)nc4c3)n2)cc1S(N)(=O)=O` [pazopanib], for which the “concentration range of significant growth inhibition on poly-HEMA” value with MDA-MB-231 cells [1] (48 h, WST-1) was 0.4 to 2.0 µg/mL. Besides, the “concentration inhibiting soft agar colony formation” value in the test with MIA PaCa-2 cells [2] is 2.1 μM and 1 μg/mL. In the test on PANC-1 cells [3] (48 h), the “concentration inhibiting growth under both conditions (adherent and deadherent)” value is recorded as “Above 2 μg/mL”. Further, in the test with PANC-1 cells [3] (adherent cells, 48 h), the “concentration range increasing adherent cell growth” value is 0.4 to 2 µg/mL. Moreover, the “starting concentration significantly decreasing growth of deadherent cells” value in the test on PANC-1 cells [3] (poly-HEMA, 48 h) was not below 0.2 µg/mL. For the same compound, the “concentration at which inhibition of soft agar colony formation reaches significance” value was 0.25 μM and 0.12 μg/mL in the test with PANC-1 cells [5]; 0.5 μM and 0.24 μg/mL in the test with MDA-MB-231 cells [6].
